Here are results for 22 compounds from patent US10265303B2, “Hyperphenylalaninemia and treatments thereof” (BERGEN TEKNOLOGIOVERFØRING AS, priority 2015, dated 2019).

In one assay the target is T1, hPAH (Homo sapiens, UniProt P00439).
T1 sequence (P00439 1-452): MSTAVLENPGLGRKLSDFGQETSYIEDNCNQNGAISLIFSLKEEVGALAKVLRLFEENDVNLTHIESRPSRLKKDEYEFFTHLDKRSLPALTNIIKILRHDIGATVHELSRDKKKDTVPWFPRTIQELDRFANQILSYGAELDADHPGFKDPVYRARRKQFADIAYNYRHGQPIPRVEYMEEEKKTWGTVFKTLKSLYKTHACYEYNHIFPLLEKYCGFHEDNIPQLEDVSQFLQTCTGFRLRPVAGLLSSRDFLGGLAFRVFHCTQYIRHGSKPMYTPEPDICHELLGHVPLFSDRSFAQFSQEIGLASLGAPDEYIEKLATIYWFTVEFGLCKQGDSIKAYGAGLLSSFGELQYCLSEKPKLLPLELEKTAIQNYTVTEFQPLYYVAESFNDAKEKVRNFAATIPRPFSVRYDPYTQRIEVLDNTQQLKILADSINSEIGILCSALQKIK
In words: SPR screening and affinity determination on immobilized hPAH (Biacore T200). In kind it is binding. As to conditions: for Kd: SPR, 25° C., compound 0-500 μM in 5% DMSO, affinities said to be overestimated, relative KD reliable, read-out: KD (μM) ± SER. The protocol: For detailed determination of binding affinity of Compound 53 and derivatives (FIG. 4) SPR was performed on a Biacore T200 (GE Healthcare Life Sciences) at a temperature of 25° C. A hPAH solution at 0.08 μg/μl in a final volume of 200 μl in acetate buffer pH 5.0 was immobilized onto series S sensor chip CM5 by the standard amine coupling procedure at a flow rate of 30 μl/min and PBS-P+ buffer as running buffer aiming for RU 20000. After the coupling reaction the surface of the sensor chip was washed to eliminate unbound species with HBS buffer (0.01 M NaHepes pH 7.4, 0.15 M NaCI) at steady flow of 20 μl/min for 1 hour until the baseline drift was around 0.05 RU/s; note that an early injection of 40 μl dithiothreitol (DTT) 10 mM in HBS allowed for this reduced washing time.
For the screening, compounds were assayed at a concentration of 200 μM, with 5% DMSO in duplicates, including negative controls with 5% DMSO, positive controls, with 200 μM BH2 and solvent correction was also performed. For KD calculations, a compound concentration 0-500 μM (in 5% DMSO) were applied at otherwise analogous experimental design and analyses were performed using Biacore T200 Evaluation Software, version 2.0 (GE Healthcare Life Sciences).
All the responses from the compounds of the screening were subjected to blank subtraction (negative control 5% DMSO), molecular weight adjustment and solvent correction to account for differences in bulk response. Next a cut-off value for the screening was selected based on the response of the positive control of our experiments: RU BH2+3*SD (2.88+3*1.79=8.27). In this manner, from the 11 derivatives of Compound 53 tested (see FIG. 4) we weeded out those compounds with a lower response than 8.27, namely #53.2, #53.9 and #53.11.
In addition and for the rest of the compounds which continued our workflow, binding affinities were determined and the results are shown in the following table. The selected conditions to measure affinity are selected for high throughput measurements, but the affinities are overestimated though the relative KD for the different compounds are reliable.

Assay [1] deals with T2, human wild-type PAH (Homo sapiens, UniProt P00439).
T2 construct: expressed in transfected cells
T2 sequence (P00439 1-452): T1 sequence (P00439 1-452)
The assay is described as follows: PAH activity in lysates of HEK293 cells permanently expressing human wild-type PAH. In kind it is cell-based. As to conditions: 1% DMSO, 8 h; for PAH activity-cells (%): 0.04 mg/ml compound, Table 3; for increase of hPAH activity with respect to the control (FIG. 6): average compound concentration 144.9 μM. How it is done:
(§1) Human embryonic kidney cells (HEK293; Life Technologies™) permanently expressing WT-hPAH, prepared with the Flp-In system (Life Technologies™) were kindly provided by Per Knappskog, Haukeland University Hospital. About 1 million cells were grown in DMEM medium containing 4.5 g/l glucose, 10% (v/v) fetal calf serum, 0.25 mg/ml gentamycine, 2 mM L-glutamine and 50 μg/ml hygromycin B, and after 24 h medium was changed and the test compounds were added at a concentration of 0.02 mg/ml (1% DMSO). Eight hours later, the cells were harvested, and the pellets frozen in dry ice and stored at −80° C. […] To prepare the cell extracts, the frozen cell pellets were thawed in TBS (+protease inhibitor) buffer and cells were homogenized with 0.1% TX-100, incubated 15 minutes at 4° C. and extracts were clarified by centrifugation 20000 g for 15 min at 4° C. Protein concentrations were normalized using a Direct Detect Spectrometer (Merck Millipore).
The 7 selected compounds as well as the first generation pharmacological chaperones (Compounds III and IV) were further analyzed in the presence and absence of BH2 (200 μM), added as precursor of BH4, to account for additive effects. […]
as §1, with “and the compounds were” for “and the test compounds were”, “concentration of 0.04 mg/ml (1%” for “concentration of 0.02 mg/ml (1%”, “for 15 minutes at 4°” for “for 15 min at 4°”

In assay [2] the target is T2, human wild-type PAH. In words: PAH immunoreactive protein level (Western blot) in HEK293 cells permanently expressing human wild-type PAH. In kind it is cell-based. As to conditions: BH2 200 μM alone, 8 h, 1% DMSO. The protocol: as §1
The 7 selected compounds as well as the first generation pharmacological chaperones (Compounds III and IV) were further analyzed in the presence and absence of BH2 (200 μM), added as precursor of BH4, to account for additive effects. A higher concentration of compound was also used 0.04 mg/ml (average of 116.7 μM) at otherwise same experimental conditions.

The next assay concerns the target T3, I65T-PAH (Homo sapiens, UniProt P00439, I65T).
T3 construct: expressed in transfected cells; host or cells: HEK293 EBNA, transient, pcDNA3-PAH
T3 sequence (P00439 1-452 I65T): T1 sequence (P00439 1-452) with I65T
In words: PAH protein level and activity in HEK293 EBNA cells transiently expressing PKU mutant I65T. The settings on record: 200 μM, 24 h, 1% DMSO. In kind it is cell-based. How it is done: (§2) Cell lysates were prepared as indicated above.

The next assay addresses T4, R261Q-PAH (Homo sapiens, UniProt P00439, R261Q).
T4 construct: expressed in transfected cells; host or cells: HEK293 EBNA, transient, pcDNA3-PAH
T4 sequence (P00439 1-452 R261Q): T1 sequence (P00439 1-452) with R261Q
In words: PAH protein level and activity in HEK293 EBNA cells transiently expressing PKU mutant R261Q. The settings on record: 200 μM, 24 h, 1% DMSO. The assay is classed as cell-based. How it is done: as §2

The target in assay [3] is dihydrofolate reductase (DHFR). The settings on record: read-out: IC50 (DHFR); ChEMBL database; cited from earlier work.

Each structure is given as a SMILES string. Positions count from the first letter of the chain named.

The Kd is the constant that tells how readily two partners part at equilibrium. On to `Nc1nc2c(c(=O)[nH]1)C(c1ccc(Cl)cc1Cl)CC(=O)N2` (racemic) [c53.10], for which, on hPAH, the Kd is 22.9 ± 2.7 µM. At human wild-type PAH [1], the “PAH activity-cells (%)” value stood at 155 ± 13% and the “increase of hPAH activity with respect to the control (FIG. 6)” value is “around 40%”.
Regarding `COc1ccc(C2CC(=O)Nc3nc(N)[nH]c(=O)c32)cc1OC` (racemic) [c53.16], at hPAH, the Kd is 76.3 ± 26.4 µM. In addition, the “PAH activity-cells (%)” value on human wild-type PAH [1] came out at 146 ± 10%.
Turning to `Nc1nc2c(c(=O)[nH]1)C(c1ccc3c(c1)OCO3)CC(=O)N2` (racemic) [c53.17], the Kd at hPAH is 11 ± 3.7 µM. Also, on human wild-type PAH [1], the “PAH activity-cells (%)” value came to 206 ± 10%.
The matching figures for `COc1ccc(C2CC(=O)Nc3nc(N)[nH]c(=O)c32)cc1` (racemic) [c53.19]: 37.2 ± 23.7 µM and 170 ± 17%.
On to `COc1cccc(C2CC(=O)Nc3nc(N)[nH]c(=O)c32)c1` (racemic) [c53.20], for which, on hPAH, the Kd was 23.2 ± 11.7 µM. The “PAH activity-cells (%)” value at human wild-type PAH [1] was 206 ± 5%.
The matching figures for `Nc1nc2c(c(=O)[nH]1)C(c1ccc(Cl)cc1)CC(=O)N2` (racemic) [c53.22]: 30.1 ± 6.5 µM and 154 ± 16%.
With `CSc1nc2c(c(=O)[nH]1)C(c1ccc3c(c1)OCO3)CC(=O)N2` (racemic) [c53.26], the Kd on hPAH is 62.1 ± 30.7 µM. Also, the “PAH activity-cells (%)” value on human wild-type PAH [1] was determined as 109 ± 5%.
On the same counts, the results for `COc1cc(C2CC(=O)Nc3nc(N)ccc32)cc(Cl)c1OC` (racemic) [c53.29] are 191 ± 20 µM and 155 ± 7%.
In the case of `COc1ccc(C2CC(=O)Nc3nc(N)ccc32)cc1O` (racemic) [c53.31], the Kd on hPAH was 55.9 ± 6.7 µM. In addition, the “PAH activity-cells (%)” value on human wild-type PAH [1] worked out at 125 ± 8%.
As for `Nc1ccc2c(n1)NC(=O)CC2c1ccc2c(c1)OCCO2` (racemic) [c53.32], the Kd on hPAH is 102 ± 11 µM.
Turning to `COc1ccc(C2CC(=O)Nc3nc(N)ccc32)c(OC)c1OC` (racemic) [c53.33], the Kd at hPAH was 182 ± 32 µM.
The same measure, in the same setting: as for `Nc1nc2c(c(=O)[nH]1)C(c1ccc3c(c1)OCO3)CC(=O)N2` (racemic) [c53.35], the figure is 23.7 ± 5 µM; as for `Nc1nc2c(c(=O)[nH]1)C(c1cccc(Cl)c1)CC(=O)N2` (racemic) [c53.40], 11.6 ± 1.6 µM; as for `Nc1nc2c(c(=O)[nH]1)C(c1cccc3ccccc13)CC(=O)N2` (racemic) [c53.41], 12.6 ± 6.4 µM.
`C[C@H](O)[C@H](O)C1=Nc2c(nc(N)[nH]c2=O)NC1` [BH2]: the “SPR screening response (blank-subtracted, MW-adjusted, solvent-corrected)” value at hPAH (200 μM, 5% DMSO, duplicates, cut-off 8.27) is listed as 2.88 RU. In addition, the “stimulating effect on PAH activity” value on human wild-type PAH [1] (BH2 200 μM alone) is given as 21.7%. In addition, the “stimulating effect on PAH protein” value on human wild-type PAH [2] was found to be 24.8%. In addition, on I65T-PAH, the “PAH activity, mutant I65T” value is recorded as “increased” and the “hPAH protein level, mutant I65T” value is recorded as “increased”. Further, on R261Q-PAH, the “PAH activity, mutant R261Q” value is listed as “increased” and the “hPAH protein level, mutant R261Q” value is “increased”.
A word on the IC50: it is the concentration needed to halve the response being measured. `COc1cc(Cc2ccc(N)nc2N)cc(OC)c1O` [CHEMBL 128600]: the IC50 in assay [3] was 10000 µM.
As for `COc1ccc(Cc2cnc(N)nc2N)cc1OC` [c53.1], on hPAH, the Kd was 104 ± 14 µM. Moreover, the “PAH activity-cells (%)” value on human wild-type PAH [1] came out at 130 ± 8%.
For `COc1cc(Cc2ccc(N)nc2N)cc(OC)c1OC` [c53.4], the Kd on hPAH was 45.2 ± 9.1 µM. For the same compound, at human wild-type PAH [1], the “PAH activity-cells (%)” value was 165 ± 28% and the “increase of hPAH activity with respect to the control (FIG. 6)” value is listed as “around 40%”.
Take `COc1cc(C(c2c[nH]c3ccccc23)c2c[nH]c3ccccc23)cc(OC)c1OC` [c53.5]: the Kd on hPAH is 370 ± 228 µM.
In the case of `CCOc1ccc(Cc2cnc(S)nc2N)cc1` [c53.6], the Kd at hPAH was 103 ± 48.8 µM. Also, at human wild-type PAH [1], the “PAH activity-cells (%)” value is reported as 120 ± 12%.
The matching figures for `Nc1ncc(Cc2ccc3c(c2)OCO3)c(N)n1` [c53.7]: 6.9 ± 4.9 µM and 119 ± 5%.
On the same counts, the results for `Nc1nc(N)c(Cc2ccc3c(c2)OCO3)c(N)n1` [c53.14] are 24.7 ± 12.1 µM and 175 ± 23%.
